From article PMC11897524 (Frontiers in Pharmacology, 2025)

How the values were obtained:
[1] = system: panel of 76 human kinases; assay: SelectScreen kinase selectivity panel; assay type: biochemical
Description: The kinase selectivity profile of BST-4 was performed by the SelectScreen kinase profiling service (Thermo Fisher Scientific). Kinase selectivity assay was performed using Z′-LYTE ™ screening protocol kit. Briefly, the test compounds were screened in 1% DMSO (final). For 10-point titrations, perform a 3-fold dilution starting at a starting concentration of 50 µM. Then 2.5 µL 4× test compound, 2.4 µL kinase buffer, 5 µL 2× kinase mixture and 2.5 µL 4× ATP solution was added in black 384-well plate. After shaking for 30 s, the plates were incubated for 60 min at room temperature. Add developing reagent solution and shake the plate for 30 s, then incubate for 1 h at room temperature. The Fluorescence intensity per well was read using a fluorescence plate reader. SelectScreen® Kinase Profiling Service used XLfit from IDBS. The dose response curve was curve fit to model number 205 (sigmoidal dose-response model) and inhibition rates were calculated. 50% inhibition was used as a activity threshold. IC50 values were calculated based on curve fitting.

BRD2 = BRD2 (Homo sapiens, UniProt P25440); assay: Inhibitory effect on BET and STAT family members; assay type: binding
Chain of BRD2 (P25440 whole entry): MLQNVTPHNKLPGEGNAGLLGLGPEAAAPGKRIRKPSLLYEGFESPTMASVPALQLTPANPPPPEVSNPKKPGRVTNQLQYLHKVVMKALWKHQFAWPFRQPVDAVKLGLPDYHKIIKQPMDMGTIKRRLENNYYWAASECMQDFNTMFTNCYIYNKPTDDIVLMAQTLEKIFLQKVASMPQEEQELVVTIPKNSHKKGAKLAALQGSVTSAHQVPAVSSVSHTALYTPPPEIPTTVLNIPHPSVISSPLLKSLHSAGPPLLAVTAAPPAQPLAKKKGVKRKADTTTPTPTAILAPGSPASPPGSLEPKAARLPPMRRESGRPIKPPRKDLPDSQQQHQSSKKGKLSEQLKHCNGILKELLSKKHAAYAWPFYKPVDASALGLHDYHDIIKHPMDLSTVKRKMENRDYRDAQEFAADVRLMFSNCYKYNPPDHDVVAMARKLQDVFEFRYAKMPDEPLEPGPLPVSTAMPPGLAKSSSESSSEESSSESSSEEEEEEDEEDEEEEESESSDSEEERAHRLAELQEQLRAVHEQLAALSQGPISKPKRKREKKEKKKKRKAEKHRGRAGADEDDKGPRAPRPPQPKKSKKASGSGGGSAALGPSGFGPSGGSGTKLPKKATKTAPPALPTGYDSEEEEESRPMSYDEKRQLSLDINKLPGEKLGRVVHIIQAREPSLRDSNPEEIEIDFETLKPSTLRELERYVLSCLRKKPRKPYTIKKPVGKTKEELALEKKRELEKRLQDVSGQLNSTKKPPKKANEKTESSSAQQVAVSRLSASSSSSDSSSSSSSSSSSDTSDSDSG
Text: (§1) TABLE 4 The inhibitory effect of BST-4 on other members of the BET and STAT families. | column: IC50 (μM)

BRDT [2] = biological target: T1, BRDT (Homo sapiens, UniProt Q58F21); assay: Inhibitory effect on BET and STAT family members; assay type: binding
Text: as §1

STAT5b [3] = biological target: T2, STAT5b (Homo sapiens, UniProt P51692); assay: Inhibitory effect on BET and STAT family members; assay type: binding
T2 sequence (P51692 whole entry): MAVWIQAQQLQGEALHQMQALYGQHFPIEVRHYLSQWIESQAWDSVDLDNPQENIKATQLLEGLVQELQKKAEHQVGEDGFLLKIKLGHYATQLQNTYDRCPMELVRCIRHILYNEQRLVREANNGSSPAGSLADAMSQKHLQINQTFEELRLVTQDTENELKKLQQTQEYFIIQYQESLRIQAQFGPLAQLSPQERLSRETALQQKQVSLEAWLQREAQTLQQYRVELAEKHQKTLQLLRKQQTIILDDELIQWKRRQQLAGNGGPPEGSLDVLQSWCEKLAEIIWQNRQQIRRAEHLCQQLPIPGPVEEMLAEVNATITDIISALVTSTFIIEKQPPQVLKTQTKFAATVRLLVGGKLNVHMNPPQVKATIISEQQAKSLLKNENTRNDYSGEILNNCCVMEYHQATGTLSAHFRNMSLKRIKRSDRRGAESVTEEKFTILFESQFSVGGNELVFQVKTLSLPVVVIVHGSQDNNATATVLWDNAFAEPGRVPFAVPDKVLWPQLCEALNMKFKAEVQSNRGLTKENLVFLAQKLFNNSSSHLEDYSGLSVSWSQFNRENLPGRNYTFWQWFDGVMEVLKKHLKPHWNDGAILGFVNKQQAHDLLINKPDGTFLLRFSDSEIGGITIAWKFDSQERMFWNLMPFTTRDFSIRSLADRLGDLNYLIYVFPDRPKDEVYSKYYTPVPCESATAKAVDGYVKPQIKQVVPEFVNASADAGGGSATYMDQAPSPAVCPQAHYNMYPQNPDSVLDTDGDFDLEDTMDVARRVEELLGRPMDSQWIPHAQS
Text: as §1

STAT4 = STAT4 (Homo sapiens, UniProt Q14765); assay: Binding affinity to BET and STAT family members
Chain of STAT4 (Q14765 whole entry): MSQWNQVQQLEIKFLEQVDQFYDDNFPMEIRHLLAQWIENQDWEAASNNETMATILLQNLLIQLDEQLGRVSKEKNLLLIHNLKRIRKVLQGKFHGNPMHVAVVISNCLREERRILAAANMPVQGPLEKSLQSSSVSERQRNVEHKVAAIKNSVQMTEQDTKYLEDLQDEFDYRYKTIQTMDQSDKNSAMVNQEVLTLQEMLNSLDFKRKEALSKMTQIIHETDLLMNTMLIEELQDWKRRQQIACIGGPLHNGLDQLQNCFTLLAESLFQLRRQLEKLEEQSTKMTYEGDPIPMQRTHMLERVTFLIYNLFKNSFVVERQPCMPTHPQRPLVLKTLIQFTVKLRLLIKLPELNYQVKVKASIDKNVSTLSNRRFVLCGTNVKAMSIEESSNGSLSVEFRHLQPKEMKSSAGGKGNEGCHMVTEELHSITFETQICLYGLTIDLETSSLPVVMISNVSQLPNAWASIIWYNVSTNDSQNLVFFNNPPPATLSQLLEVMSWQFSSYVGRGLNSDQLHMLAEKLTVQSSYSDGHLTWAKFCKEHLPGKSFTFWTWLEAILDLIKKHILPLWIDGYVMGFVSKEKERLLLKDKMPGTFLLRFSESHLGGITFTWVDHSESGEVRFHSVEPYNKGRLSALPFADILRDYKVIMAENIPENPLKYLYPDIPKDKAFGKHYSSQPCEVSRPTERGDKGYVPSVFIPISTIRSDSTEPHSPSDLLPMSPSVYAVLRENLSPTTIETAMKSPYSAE

BRDT [4] = biological target: T1, BRDT; assay: Binding affinity to BET and STAT family members
STAT5b [5] = biological target: T2, STAT5b; assay: Binding affinity to BET and STAT family members
STAT3 = STAT3 (Homo sapiens, UniProt P40763); assay: Microscale thermophoresis (MST) assay; assay type: binding; set-up: purchased Abcam
Chain of STAT3 (P40763 whole entry): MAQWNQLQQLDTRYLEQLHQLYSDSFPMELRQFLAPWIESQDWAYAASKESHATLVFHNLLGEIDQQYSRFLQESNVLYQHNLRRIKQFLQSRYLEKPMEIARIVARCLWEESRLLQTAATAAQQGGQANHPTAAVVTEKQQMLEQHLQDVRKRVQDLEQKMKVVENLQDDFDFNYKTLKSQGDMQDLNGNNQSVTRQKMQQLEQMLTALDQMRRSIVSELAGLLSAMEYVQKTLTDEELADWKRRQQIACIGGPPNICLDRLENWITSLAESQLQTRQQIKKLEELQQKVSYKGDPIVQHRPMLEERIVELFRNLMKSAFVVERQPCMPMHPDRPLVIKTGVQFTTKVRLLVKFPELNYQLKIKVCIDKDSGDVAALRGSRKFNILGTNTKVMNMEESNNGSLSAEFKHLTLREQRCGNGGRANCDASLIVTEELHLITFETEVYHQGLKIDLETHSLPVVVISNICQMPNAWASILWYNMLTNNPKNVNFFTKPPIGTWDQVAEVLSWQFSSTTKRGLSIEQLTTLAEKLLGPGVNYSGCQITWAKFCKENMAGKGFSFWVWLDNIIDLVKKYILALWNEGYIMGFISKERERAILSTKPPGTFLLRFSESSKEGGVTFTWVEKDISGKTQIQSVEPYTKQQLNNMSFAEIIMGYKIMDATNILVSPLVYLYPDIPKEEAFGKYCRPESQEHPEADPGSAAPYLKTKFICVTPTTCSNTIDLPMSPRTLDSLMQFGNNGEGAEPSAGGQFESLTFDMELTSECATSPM
Description: The MST experiments were performed using the Monolith NT.115 instrument. BRD4 and STAT3 proteins were labeled with the Lys labeling kit at the final concentration of 100 nM. The compounds, previously suspended in 100% DMSO, were diluted in a buffer containing 20 mM Tris·HCl (pH 7.5), 100 mM NaCl, and 3 mM DTT, achieving a final DMSO concentration of 5%. The compounds were gradient-diluted in 1:1 dilution and starting from 100 μM. The samples were loaded into MST-standard glass capillaries. All the measurements were performed in triplicate using automatically assigned 50% MST power and 20% LED power. Data analysis was performed using GraphPad Prism 7.0 software.

c-myc mRNA = assay: RT-qPCR of c-myc mRNA in CAKI-2 cells; assay type: cell-based, human; conditions: 24 h, different concentrations
Description: This method was performed as previously reported. Briefly, the CAKI-2 cells were seeded into 6-well plates and cultured overnight, and treated with different concentrations of BST-4 for 24 h. RNA was extracted from cells and tissues using Trizol reagent and reverse transcribed using PrimeScriptRTase. cDNA was used for RT-qPCR SYBR Green assays (Takara). The relative levels of c-myc mRNA were calculated as [(c-myc mRNA in the treatment group)/(β-actin mRNA in the treatment group)]/[(c-myc mRNA in the control group)/(β-actin mRNA in the control group).

CAKI-2 cells = assay: MTT cytotoxicity assay; assay type: cell-based, human
Description: Human normal renal cortical proximal tubular epithelial cell line HK-2 and human renal carcinoma cell lines CAKI-2, SLR-23, 769-P, A704 and RCC4 were previously purchased from the American Type Culture Collection (ATCC, Manassas, VA, USA) or the European Collection of Cell Cultures (ECACC, Salisbury, United Kingdom). HK2, A704, and RCC4 cells were maintained in high glucose DMEM supplemented with 10% FBS and 1% penicillin/streptomycin. SLR-23 and […] cells were cultured in RPMI-1640 medium with 10% FBS and 1% penicillin/streptomycin. CAKI-2 cells were maintained in McCoy’s 5A medium supplemented with 10% FBS and 1% penicillin/streptomycin. All the cell lines were cultured at 37°C in a humidified atmosphere of 5% CO2 and 95% air.
The effect of hit compounds on cytotoxicity was determined as previously reported ([Ding et al., 2020]). In brief, cells treated with the tested compounds were added with MTT reagent to form formazan crystals, and then the optical density (OD) values at 570 nm were determined after the crystals were dissolved in DMSO. […] Next, the values of IC50 of the selected compounds against more RCC cell lines were determined. The 5 × 10^3 cells in 100 μL culture medium were injected into each well of a 96-well plate and cultured overnight. Add different concentrations of compounds and incubate for 48 h. Then 100 μL of MTT (0.5 mg/mL) solution was added to the 96-well plate and maintained at 37°C for 4 h. Finally, 200 μL of DMSO was added and shaken for 10 min. The OD values at 570 nm were determined by a Synergy 4 microplate reader.

BRD4 = BRD4 (Homo sapiens, UniProt O60885); assay: AlphaScreen BRD4 binding inhibition assay; set-up: purchased Abcam
Description: The inhibitory effect was measured through the previously described the amplified luminescent proximity homogeneous assay (AlphaScreen) ([Feng et al., 2018]). First, the compounds were diluted twofold to different concentrations (64, 32, 16, 8, 4, 2, 1, 0.5, 0.25, 0.125, 0.0625 nM) and each was incubated with BRD4 protein at a concentration of 12.5 nM for 15 min at room temperature. Biotin-labeled peptide (SGRG-K(Ac)-GG-K(Ac)-GLG-K(Ac)-GGA-K (Ac)-RHRKVGG-K-biotin) was added for 10 min, followed by streptavidin donor beads and AlphaScreen nickel chelate acceptor and incubation for 1h. All components were incubated in a total volume of 20 μL assay buffer containing 20 mM HEPES, pH 7.4, 0.1% bovine serum albumin (BSA, w/v), 0.01% Triton X-100, and 1 mM DTT. Finally, counts were measured by EnVision (Perkin Elmer, Hopkinton, MA) and analyzed by Graphpad Prism 7.0 software.

STAT1 = STAT1 (Homo sapiens, UniProt P42224); assay: Binding affinity to BET and STAT family members
Chain of STAT1 (P42224 whole entry): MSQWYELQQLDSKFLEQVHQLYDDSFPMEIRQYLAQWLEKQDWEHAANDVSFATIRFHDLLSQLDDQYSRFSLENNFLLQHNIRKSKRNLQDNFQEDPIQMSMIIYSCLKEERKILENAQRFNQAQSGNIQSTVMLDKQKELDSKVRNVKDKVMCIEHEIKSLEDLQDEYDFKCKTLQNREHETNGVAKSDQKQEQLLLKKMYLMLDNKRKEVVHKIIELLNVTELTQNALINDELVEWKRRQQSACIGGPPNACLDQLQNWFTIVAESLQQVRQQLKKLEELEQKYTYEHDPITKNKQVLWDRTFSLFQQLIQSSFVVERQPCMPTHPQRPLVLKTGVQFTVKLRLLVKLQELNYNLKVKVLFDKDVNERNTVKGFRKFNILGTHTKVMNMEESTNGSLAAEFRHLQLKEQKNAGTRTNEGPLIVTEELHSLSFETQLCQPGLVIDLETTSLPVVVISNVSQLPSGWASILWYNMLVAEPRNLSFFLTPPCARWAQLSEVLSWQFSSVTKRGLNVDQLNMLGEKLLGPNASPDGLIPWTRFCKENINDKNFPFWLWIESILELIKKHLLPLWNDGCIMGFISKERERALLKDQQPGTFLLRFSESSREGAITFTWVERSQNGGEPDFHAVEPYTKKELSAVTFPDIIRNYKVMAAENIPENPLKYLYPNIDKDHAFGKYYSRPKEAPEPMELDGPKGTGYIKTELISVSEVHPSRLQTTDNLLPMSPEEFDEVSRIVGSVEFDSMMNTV

STAT3 phosphorylation = assay: Western blot of phosphorylated STAT3 in CAKI-2 cells; assay type: cell-based, human; conditions: 100 nM, 24 h
Description: For the assessment of protein expression levels, Western blot analysis was conducted following a standardized protocol ([Zhou et al., 2022]). The CAKI-2 cells were initially rinsed with PBS to remove any residual culture medium. Subsequently, cells were lysed using a RIPA buffer supplemented with 1 mM phenylmethylsulfonyl fluoride (PMSF), and the lysate was incubated on ice for a duration of 1 h. The lysate was centrifuged at a speed of 13,000 rpm for 30 min at 4°C. Protein concentrations were quantified using a BCA protein assay kit (Beyotime, Shanghai, China), ensuring equal protein loading for each sample. Samples were then resolved by SDS-PAGE and transferred onto a polyvinylidene difluoride (PVDF) membrane. Subsequently, the membrane was blocked with 3% BSA in PBS at room temperature for 2 h and incubated overnight with the corresponding antibody at 4°C. After washing to remove unbound primary antibodies, the membrane was incubated with horseradish peroxidase (HRP)-conjugated secondary antibodies for a period of 1 h at room temperature. The specific protein bands were visualized using ECL detection system (Tanon, Shanghai, China), and the band intensities were quantified using ImageJ software.

For CCS(=O)(=O)Cc1cnc(Oc2c(F)cc(F)cc2OCCCCOc2ccc(/C=C/c3cc(OC)cc(OC)c3)cc2)c(-c2cc(C)c3c(=O)[nH]ccn23)c1 [BST-4], the “inhibition of all 76 kinases at 1 µM” value ([1]; 1 µM) was “less than 10%”, the IC50 ([1]; read-out: IC50 on panel of 76 human kinases, all kinases of the panel) was > 10 µM and the IC50 (BRD2) was > 10 µM. For the same compound, the IC50 (BRDT [2]) was > 10 µM, the IC50 (STAT5b [3]) was > 10 µM and the Kd (STAT4) was > 10 µM. For the same compound, the Kd (BRDT [4]) was > 10 µM, the Kd (STAT5b [5]) was > 10 µM and the “STAT3 binding affinity relative to CJ-1383” value (STAT3; Kd ratio vs CJ-1383, MST) was 211 fold. The Kd (STAT3; MST) was 0.00428 ± 0.00059 µM, the “expression of c-myc mRNA in CAKI-2 cells” value (c-myc mRNA) was “strongly dose-dependent downregulated” and the IC50 (CAKI-2 cells; Homo sapiens, CAKI-2, cell growth, 48 h treatment, read-out: IC50 (μM) ± SD CAKI-2) was 0.76 ± 0.05 µM. For the same compound, the “cell inhibitory rate (%) against CAKI-2 cells” value (CAKI-2 cells; all compounds at the same concentration) was “more than 95%”, the IC50 (BRD4) was 0.00245 ± 0.00011 µM and the “BRD4 inhibition relative to RVX-208” value (BRD4; IC50 ratio vs RVX-208) was “about 16 fold”. For the same compound, the Kd (STAT1) was > 10 µM and the “STAT3 phosphorylation in CAKI-2 cells” value (STAT3 phosphorylation) was “significantly decreased”.
